Results from patent publication US7842856B2, “Herbicide resistance gene, compositions and methods” (The Board of Trustees of the University of Illinois, priority 2005, dated 2010).

What was measured:
[1] = test system: A. tuberculatus R (PPO inhibitor-resistant) parent; test: Herbicide dose-response on whole plants, R parent; format: in vivo, Amaranthus tuberculatus (waterhemp); details: for GR50 (growth reduction by 50%) R: R line
[2] = test system: A. tuberculatus F2 and backcross lines; test: Inheritance of resistance: R or S response of F2 and backcross lines to lactofen; format: in vivo, Amaranthus tuberculatus
[3] = male F1(R) x female F1(R), lactofen 110 g ai ha^−1 plus 1% COC, 15 days after treatment, N 400
[4] = male F1(R) x female R, lactofen 110 g ai ha^−1, 15 days, N 200
[5] = male F1(R) x female S, lactofen 110 g ai ha^−1, 15 days, N 200
[6] = male F1(S) x female F1(S), lactofen 110 g ai ha^−1, 15 days, N 400
[7] = male F1(S) x female R, lactofen 110 g ai ha^−1, 15 days, N 200
[8] = male F1(S) x female S, lactofen 110 g ai ha^−1, 15 days, N 200

SMILES | GR50 (growth reduction by 50%) R ([1]; 10 DAT) | GR50 (growth reduction by 50%) R ([1]; 15 DAT, dry weight vs control, plus 1% COC) | fold higher doses survived compared with S plants ([1]; lines homozygous for resistance vs S plants (FIG. 2; Table 2)) | Observed numbers R [2, 3] | Observed numbers S [2, 3] | Observed numbers R [2, 4] | Observed numbers S [2, 4] | Observed numbers R [2, 5] | Observed numbers S [2, 5] | Observed numbers R [2, 6] | Observed numbers S [2, 6] | Observed numbers R [2, 7] | Observed numbers S [2, 7] | Observed numbers R [2, 8] | Observed numbers S [2, 8]
CCOC(=O)C(C)OC(=O)c1cc(Oc2ccc(C(F)(F)F)cc2Cl)ccc1[N+](=O)[O-] (racemic) [Lactofen, (±)-2-ethoxy-1-methyl-2-oxoethyl 5-{2-chloro-4-(trifluoromethyl)phenoxy}-2-nitrobenzoate] | 2.9 g ai ha^−1 | 21 g ai ha^−1 | 53 fold | 297 | 103 | 200 | 0 | 98 | 102 | 304 | 96 | 200 | 0 | 109 | 91
O=C(O)c1cc(Oc2ccc(C(F)(F)F)cc2Cl)ccc1[N+](=O)[O-] [Acifluorfen, 5-{2-chloro-4-(trifluoromethyl)phenoxy}-2-nitrobezoic acid] | 5.8 g ai ha^−1 | – | – | – | – | – | – | – | – | – | – | – | – | – | –
